This passage reports IC50 results from ChEMBL document CHEMBL1157259, “Cytotoxic and other compounds from Didymochlaena truncatula from the Madagascar rain forest” (J Nat Prod, 2006).

Values after ≈ are worked out from the molar mass of the structure shown.

In this test the test system is A2780. The experiment in a line: Cytotoxicity against human A2780 cells by clonogenic assay. Type of test: functional, cell-based.
The compound `CC[C@@]1(O)C(=O)OCc2c1cc1n(c2=O)Cc2cc3c(OC)cccc3nc2-1` returned a 50% inhibitory concentration (IC50) of 0.02 µg/mL (≈ 0.0529 µM).
Next, `CC[C@@]1(O)C(=O)OCc2c1cc1n(c2=O)Cc2cc3ccccc3nc2-1` [CAMPTOTHECIN]: 0.07 µg/mL (≈ 0.201 µM).
In the case of `COc1cc(O)cc(/C=C/c2ccccc2)c1` [PINOSYLVIN METHYL ETHER] it was 10 µg/mL (≈ 44.2 µM).

In general, IC50 refers to the midpoint of a concentration-inhibition curve. Read a low IC50 as greater potency in that assay.
